Measurements reported in ChEMBL document CHEMBL1147755, “5-heteroatom substituted pyrazoles as canine COX-2 inhibitors. Part 1: Structure-activity relationship studies of 5-alkylamino pyrazoles and discovery of a potent, selective, and orally active analog” (Bioorg Med Chem Lett, 2006).
Calls of active or inactive are those of the source. The rule behind the calls is not given here.

system: not listed separately; assay: Half life in cat administered at 0.5 mg/kg, sc; format: ADME, organism-based, Felis catus; parameters: dose 0.5 mg/kg, route subcutaneous; conditions: in vivo

Structure (SMILES) | half-life [h]
C[C@@H]1CN(c2c(C#N)c(C(F)F)nn2-c2ccc(S(C)(=O)=O)cn2)C[C@H](C)O1 | 60

species: Canis lupus familiaris; assay: Selectivity of COX1 over COX2 in canine whole blood assay; format: tissue-based; conditions: not given

Structure (SMILES) | Ratio IC50
CCC(C)CNc1c(C#N)c(C(F)F)nn1-c1ccc(S(N)(=O)=O)cn1 (configuration not stated) | 21.9
CCC(CC)Nc1c(C#N)c(C(F)(F)F)nn1-c1ccc(S(C)(=O)=O)cn1 | 33.8
CC(C)Nc1c(C#N)c(C(F)(F)F)nn1-c1ccc(S(C)(=O)=O)cn1 | 114
Cc1ccc(CNc2c(C#N)c(C(F)(F)F)nn2-c2ccc(S(C)(=O)=O)cn2)cc1 | 187
CCC(C)CNc1c(C#N)c(C(F)(F)F)nn1-c1ccc(S(N)(=O)=O)cn1 (configuration not stated) | 23.1
C[C@@H]1C[C@H](C)CN(c2c(C#N)c(C(F)F)nn2-c2ccc(S(N)(=O)=O)cn2)C1 | 34.7
CS(=O)(=O)c1ccc(-n2nc(C(F)(F)F)c(C#N)c2N2CCCCC2)nc1 | > 325
CS(=O)(=O)c1ccc(-n2nc(C(F)F)c(C#N)c2NCC2OCCO2)nc1 | > 259
C[C@@H]1CN(c2c(C#N)c(C(F)(F)F)nn2-c2ccc(S(N)(=O)=O)cn2)C[C@H](C)O1 | > 6.3
C[C@@H]1CN(c2c(C#N)c(C(F)F)nn2-c2ccc(S(N)(=O)=O)cn2)C[C@H](C)O1 | > 10
CS(=O)(=O)c1ccc(-n2nc(C(F)F)c(C#N)c2NC2CC3CCC2C3)nc1 (configuration not stated) | 49.8
CS(=O)(=O)c1ccc(-n2nc(C(F)(F)F)c(C#N)c2NCC2CC2)nc1 | 200
CC1CC(C)CN(c2c(C#N)c(C(F)(F)F)nn2-c2ccc(S(C)(=O)=O)cn2)C1 (configuration not stated) | > 526
CC(C)(C)CNc1c(C#N)c(C(F)F)nn1-c1ccc(S(C)(=O)=O)cn1 | 180
C[C@@H]1CN(c2c(C#N)c(C(F)F)nn2-c2ccc(S(C)(=O)=O)cn2)C[C@H](C)O1 | 186

system: not listed separately; assay: Cmax in dog administered at 2 mg/kg, po; format: ADME, organism-based, Canis lupus familiaris; parameters: dose 2 mg/kg, route oral; conditions: in vivo

Structure (SMILES) | Cmax [ng/mL]
CCC(C)CNc1c(C#N)c(C(F)(F)F)nn1-c1ccc(S(N)(=O)=O)cn1 (configuration not stated) | 310
C[C@@H]1C[C@H](C)CN(c2c(C#N)c(C(F)F)nn2-c2ccc(S(N)(=O)=O)cn2)C1 | 506
C[C@@H]1CN(c2c(C#N)c(C(F)F)nn2-c2ccc(S(C)(=O)=O)cn2)C[C@H](C)O1 | 815

system: not listed separately; assay: Tmax in dog administered at 2 mg/kg, po; format: ADME, organism-based, Canis lupus familiaris; parameters: dose 2 mg/kg, route oral; conditions: in vivo

Structure (SMILES) | Tmax [h]
CCC(C)CNc1c(C#N)c(C(F)(F)F)nn1-c1ccc(S(N)(=O)=O)cn1 (configuration not stated) | 1.3
C[C@@H]1C[C@H](C)CN(c2c(C#N)c(C(F)F)nn2-c2ccc(S(N)(=O)=O)cn2)C1 | 0.5
C[C@@H]1CN(c2c(C#N)c(C(F)F)nn2-c2ccc(S(C)(=O)=O)cn2)C[C@H](C)O1 | 1.4

system: Canis familiaris; assay: AUC in dog administered at 2 mg/kg, po; format: ADME, organism-based, Canis lupus familiaris, Plasma; parameters: dose 2 mg/kg, route oral; conditions: in vivo

Structure (SMILES) | AUC [ng·h/mL]
CCC(C)CNc1c(C#N)c(C(F)(F)F)nn1-c1ccc(S(N)(=O)=O)cn1 (configuration not stated) | 910
C[C@@H]1C[C@H](C)CN(c2c(C#N)c(C(F)F)nn2-c2ccc(S(N)(=O)=O)cn2)C1 | 2100
C[C@@H]1CN(c2c(C#N)c(C(F)F)nn2-c2ccc(S(C)(=O)=O)cn2)C[C@H](C)O1 | 4830

system: not listed separately; assay: Half life in dog administered at 2 mg/kg, po; format: ADME, organism-based, Canis lupus familiaris; parameters: dose 2 mg/kg, route oral; conditions: in vivo

Structure (SMILES) | half-life [h]
CCC(C)CNc1c(C#N)c(C(F)(F)F)nn1-c1ccc(S(N)(=O)=O)cn1 (configuration not stated) | 2.4
C[C@@H]1C[C@H](C)CN(c2c(C#N)c(C(F)F)nn2-c2ccc(S(N)(=O)=O)cn2)C1 | 1.5
C[C@@H]1CN(c2c(C#N)c(C(F)F)nn2-c2ccc(S(C)(=O)=O)cn2)C[C@H](C)O1 | 11

system: not listed separately; assay: Cmax in cat administered at 0.5 mg/kg, sc; format: ADME, organism-based, Felis catus; parameters: dose 0.5 mg/kg, route subcutaneous; conditions: in vivo

Structure (SMILES) | Cmax [ng/mL]
C[C@@H]1CN(c2c(C#N)c(C(F)F)nn2-c2ccc(S(C)(=O)=O)cn2)C[C@H](C)O1 | 194

system: not listed separately; assay: Tmax in cat administered at 0.5 mg/kg, sc; format: ADME, organism-based, Felis catus; parameters: dose 0.5 mg/kg, route subcutaneous; conditions: in vivo

Structure (SMILES) | Tmax [h]
C[C@@H]1CN(c2c(C#N)c(C(F)F)nn2-c2ccc(S(C)(=O)=O)cn2)C[C@H](C)O1 | 28

system: not listed separately; assay: AUC in cat administered at 0.5 mg/kg, sc; format: ADME, organism-based, Felis catus; parameters: dose 0.5 mg/kg, route subcutaneous; conditions: plasma

Structure (SMILES) | AUC [ng·h/mL]
C[C@@H]1CN(c2c(C#N)c(C(F)F)nn2-c2ccc(S(C)(=O)=O)cn2)C[C@H](C)O1 | 26800

system: Canis familiaris; assay: Decrease in lameness induced by synovitis in knee joints of Beagle dogs at 4 mg/kg; format: functional, organism-based; parameters: dose 4 mg/kg; conditions: Canis lupus familiaris, Knee joint

Structure (SMILES) | Activity
C[C@@H]1CN(c2c(C#N)c(C(F)F)nn2-c2ccc(S(C)(=O)=O)cn2)C[C@H](C)O1 | Active

target: T1, Prostaglandin G/H synthase 1 (Canis lupus familiaris, UniProt Q8HZR1); conditions: not given
T1 sequence (Q8HZR1 whole entry): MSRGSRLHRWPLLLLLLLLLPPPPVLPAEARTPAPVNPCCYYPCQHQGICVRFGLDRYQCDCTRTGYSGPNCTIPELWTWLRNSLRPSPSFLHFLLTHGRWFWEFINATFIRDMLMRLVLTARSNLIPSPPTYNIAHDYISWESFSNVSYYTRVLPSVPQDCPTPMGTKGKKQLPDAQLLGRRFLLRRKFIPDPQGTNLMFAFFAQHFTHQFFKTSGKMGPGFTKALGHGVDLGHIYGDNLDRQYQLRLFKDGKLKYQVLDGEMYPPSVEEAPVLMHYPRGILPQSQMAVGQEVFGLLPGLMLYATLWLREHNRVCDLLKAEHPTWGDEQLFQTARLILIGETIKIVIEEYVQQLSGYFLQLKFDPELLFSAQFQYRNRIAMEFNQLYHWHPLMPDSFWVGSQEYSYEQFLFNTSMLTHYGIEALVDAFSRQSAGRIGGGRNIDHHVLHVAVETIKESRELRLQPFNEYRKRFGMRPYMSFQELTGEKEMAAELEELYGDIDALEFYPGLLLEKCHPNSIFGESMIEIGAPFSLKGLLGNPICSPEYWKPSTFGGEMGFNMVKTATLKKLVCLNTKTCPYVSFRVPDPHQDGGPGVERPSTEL

Structure (SMILES) | IC50 [µM]
CCC(C)CNc1c(C#N)c(C(F)F)nn1-c1ccc(S(N)(=O)=O)cn1 (configuration not stated) | 4
CCC(CC)Nc1c(C#N)c(C(F)(F)F)nn1-c1ccc(S(C)(=O)=O)cn1 | 6.7
CC(C)Nc1c(C#N)c(C(F)(F)F)nn1-c1ccc(S(C)(=O)=O)cn1 | 40.8
Cc1ccc(CNc2c(C#N)c(C(F)(F)F)nn2-c2ccc(S(C)(=O)=O)cn2)cc1 | 21.5
CCC(C)CNc1c(C#N)c(C(F)(F)F)nn1-c1ccc(S(N)(=O)=O)cn1 (configuration not stated) | 4.5
C[C@@H]1C[C@H](C)CN(c2c(C#N)c(C(F)F)nn2-c2ccc(S(N)(=O)=O)cn2)C1 | 7
CS(=O)(=O)c1ccc(-n2nc(C(F)(F)F)c(C#N)c2N2CCCCC2)nc1 | > 50
CS(=O)(=O)c1ccc(-n2nc(C(F)F)c(C#N)c2NCC2OCCO2)nc1 | > 50
C[C@@H]1CN(c2c(C#N)c(C(F)(F)F)nn2-c2ccc(S(N)(=O)=O)cn2)C[C@H](C)O1 | > 50
C[C@@H]1CN(c2c(C#N)c(C(F)F)nn2-c2ccc(S(N)(=O)=O)cn2)C[C@H](C)O1 | > 50
CS(=O)(=O)c1ccc(-n2nc(C(F)F)c(C#N)c2NC2CC3CCC2C3)nc1 (configuration not stated) | 20.9
CS(=O)(=O)c1ccc(-n2nc(C(F)(F)F)c(C#N)c2NCC2CC2)nc1 | 22
CC1CC(C)CN(c2c(C#N)c(C(F)(F)F)nn2-c2ccc(S(C)(=O)=O)cn2)C1 (configuration not stated) | > 50
CC(C)(C)CNc1c(C#N)c(C(F)F)nn1-c1ccc(S(C)(=O)=O)cn1 | 36.3
C[C@@H]1CN(c2c(C#N)c(C(F)F)nn2-c2ccc(S(C)(=O)=O)cn2)C[C@H](C)O1 | 43.8

target: T2, Cyclooxygenase-2 (Canis lupus familiaris, UniProt Q8SPQ9); conditions: not given
T2 sequence (Q8SPQ9 whole entry): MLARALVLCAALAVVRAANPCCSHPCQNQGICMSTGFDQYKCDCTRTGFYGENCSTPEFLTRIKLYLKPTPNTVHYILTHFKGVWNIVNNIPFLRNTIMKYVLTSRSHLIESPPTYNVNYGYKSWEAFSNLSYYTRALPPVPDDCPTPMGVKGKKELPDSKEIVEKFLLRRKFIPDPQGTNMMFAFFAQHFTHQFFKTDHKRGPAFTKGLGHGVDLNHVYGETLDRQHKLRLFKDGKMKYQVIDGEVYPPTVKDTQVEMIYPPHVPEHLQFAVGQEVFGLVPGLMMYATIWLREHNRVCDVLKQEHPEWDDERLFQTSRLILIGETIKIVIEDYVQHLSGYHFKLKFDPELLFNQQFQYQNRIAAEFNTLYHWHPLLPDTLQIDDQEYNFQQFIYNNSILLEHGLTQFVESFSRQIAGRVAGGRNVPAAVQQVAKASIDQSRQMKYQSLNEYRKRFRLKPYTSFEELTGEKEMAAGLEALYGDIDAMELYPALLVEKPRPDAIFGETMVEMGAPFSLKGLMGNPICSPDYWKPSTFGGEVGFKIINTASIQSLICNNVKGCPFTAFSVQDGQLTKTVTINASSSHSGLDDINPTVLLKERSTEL

Structure (SMILES) | IC50 [µM]
CCC(C)CNc1c(C#N)c(C(F)F)nn1-c1ccc(S(N)(=O)=O)cn1 (configuration not stated) | 0.2
CCC(CC)Nc1c(C#N)c(C(F)(F)F)nn1-c1ccc(S(C)(=O)=O)cn1 | 0.197
CC(C)Nc1c(C#N)c(C(F)(F)F)nn1-c1ccc(S(C)(=O)=O)cn1 | 0.36
Cc1ccc(CNc2c(C#N)c(C(F)(F)F)nn2-c2ccc(S(C)(=O)=O)cn2)cc1 | 0.115
CCC(C)CNc1c(C#N)c(C(F)(F)F)nn1-c1ccc(S(N)(=O)=O)cn1 (configuration not stated) | 0.19
C[C@@H]1C[C@H](C)CN(c2c(C#N)c(C(F)F)nn2-c2ccc(S(N)(=O)=O)cn2)C1 | 0.21
CS(=O)(=O)c1ccc(-n2nc(C(F)(F)F)c(C#N)c2N2CCCCC2)nc1 | 0.15
CS(=O)(=O)c1ccc(-n2nc(C(F)F)c(C#N)c2NCC2OCCO2)nc1 | 0.19
C[C@@H]1CN(c2c(C#N)c(C(F)(F)F)nn2-c2ccc(S(N)(=O)=O)cn2)C[C@H](C)O1 | 7.9
C[C@@H]1CN(c2c(C#N)c(C(F)F)nn2-c2ccc(S(N)(=O)=O)cn2)C[C@H](C)O1 | 5
CS(=O)(=O)c1ccc(-n2nc(C(F)F)c(C#N)c2NC2CC3CCC2C3)nc1 (configuration not stated) | 0.42
CS(=O)(=O)c1ccc(-n2nc(C(F)(F)F)c(C#N)c2NCC2CC2)nc1 | 0.11
CC1CC(C)CN(c2c(C#N)c(C(F)(F)F)nn2-c2ccc(S(C)(=O)=O)cn2)C1 (configuration not stated) | 0.095
CC(C)(C)CNc1c(C#N)c(C(F)F)nn1-c1ccc(S(C)(=O)=O)cn1 | 0.2
C[C@@H]1CN(c2c(C#N)c(C(F)F)nn2-c2ccc(S(C)(=O)=O)cn2)C[C@H](C)O1 | 0.24
